Assay results taken from patent publication US20260015315A1, “AMINO LIPID COMPOUND, PREPARATION METHOD THEREFOR, COMPOSITION THEREOF AND APPLICATION THEREOF” (SHENZHEN SHENXIN BIOTECHNOLOGY CO., LTD., priority 2022, published 2026).

Test system: BALB/c mice
Assay: In vivo delivery of lipid nanoparticle encapsulating luciferase mRNA (Fluc mRNA), IVIS imaging
Settings: for Total flux (fluorescence expression intensity): Fluc mRNA-LNP (amino lipid:DSPC:CHO-HP:PEG2000-DMG 48:10:40.5:1.5), whole body; for Total flux (fluorescence expression intensity) / Spleen (fluorescence expression intensity): 75 μL tail vein IV, female BALB/c mice, IVIS 6 hours after injection; for Spleen (fluorescence expression intensity) / (Spleen/Total Flux) * 100% / Multiple of spleen delivery/total delivery (Spleen/Total Flux) to Compound 118: Fluc mRNA-LNP; for (Spleen/Total Flux) * 100% / Multiple of spleen delivery/total delivery (Spleen/Total Flux) to Compound 118: tail vein IV, BALB/c mice, 6 hours; for Multiple of spleen delivery/total delivery (Spleen/Total Flux) to Compound 118: relative to Compound 118
Experimental: The amino lipid compound of the present disclosure, a helper lipid, a structural lipid, and a PEG-lipid were separately dissolved in absolute ethanol to prepare respective solutions at concentrations of 20 mg/mL, 10 mg/mL, 20 mg/mL, and 25 mg/mL, respectively. The above four solutions were pipetted at a molar ratio of the amino lipid compound: DSPC:CHO-HP:PEG2000-DMG of 48:10:40.5:1.5, and mixed well to prepare an alcohol phase.
(2) Encapsulation: The water phase and the alcohol phase were injected into a microfluidic chip at a flow rate of water phase:alcohol phase=12 mL/min: 4 mL/min by using a microfluidic preparation instrument (MPE-L2), and encapsulation was carried out at a flow rate of water phase:alcohol phase=9 mL/min: 3 mL/min to obtain mRNA-encapsulating lipid nanoparticle (mRNA-LNP).
(3) Dialysis: The product of step (2) was loaded in a dialysis bag and placed in a Tris Buffer-8% sucrose solution for replacement to remove ingredients such as residual ethanol, unassembled lipids. Dialysis was conducted for 2 h with magnetic stirring at room temperature and under protection from light (dialysate was replaced every 1 hour).
(4) The product of step (3) was sterilized by passing through a 0.22 μm microporous membrane, and then packaged.
Lipid nanoparticle formulations encapsulating Flue mRNA were prepared, with a concentration of Flue mRNA of 0.2 μg/μL, a mass ratio of Flue mRNA to Lipid of 1:10, a particle size of 80-130 nm, and a encapsulation efficiency of 80% or higher.
• Animal preparation: Female BALB/c mice of 6-8 weeks old were selected and raised in an SPF grade breeding room. Animal testing was conducted in strict accordance with the guidelines of national health institutions and animal ethics requirements.
In vivo Delivery: prior to injection of the test LNP formulations, the LNP formulations were gently and repeatedly inverted to thoroughly mix the formulation samples. A corresponding amount of the formulation samples were aspirated with a 1 ml insulin syringe, and the LNP formulations were injected by tail vein injection (IV), with 3 mice in duplicate per formulation. Each mouse was injected with 75 μL of the luciferase mRNA (Flue mRNA)-encapsulating lipid nanoparticle formulation prepared in Experimental Example 1.
6 hours after injection of LNP formulations, mice were injected with 200 μL D-Luciferin luciferase developing substrate (Catalog No. 122799; Manufacturer: Perkin Elmer). After the substrate was injected, the mice were anesthetized by injection of 200 μl of 2.5% avertin, and the injection time of luciferase developing substrate was recorded.
The fluorescence expression intensity induced by the lipid nanoparticle encapsulating luciferase mRNA (Flue mRNA) with a representative amino lipid compound is shown in Table 4, with the amino lipid compound 118 as a control.

CCCCCCC(CCCCCC)OC(=O)CCCCCCCCC(CCCCCCCCC(=O)OC(CCCCCC)CCCCCC)N(CCCN(C)C)C(=O)COCCCC [compound 119]
Total flux (fluorescence expression intensity): 2.65E+07
Spleen (fluorescence expression intensity): 6.80E+06
(Spleen/Total Flux) * 100%: 25.66%
Multiple of spleen delivery/total delivery (Spleen/Total Flux) to Compound 118: 22.51

CCCCCCC(CCCCCC)OC(=O)CCCCCCCCC(CCCCCCCCC(=O)OC(CCCCCC)CCCCCC)N(CCCN(C)C)C(=O)COCCCCC [compound 120]
Total flux (fluorescence expression intensity): 3.48E+07
Spleen (fluorescence expression intensity): 6.46E+06
(Spleen/Total Flux) * 100%: 18.56%
Multiple of spleen delivery/total delivery (Spleen/Total Flux) to Compound 118: 16.28

CCCCCCOCC(=O)N(CCCN(C)C)C(CCCCCCCCC(=O)OC(CCCCCC)CCCCCC)CCCCCCCCC(=O)OC(CCCCCC)CCCCCC [compound 121]
Total flux (fluorescence expression intensity): 3.07E+07
Spleen (fluorescence expression intensity): 7.14E+06
(Spleen/Total Flux) * 100%: 23.26%
Multiple of spleen delivery/total delivery (Spleen/Total Flux) to Compound 118: 20.40

CCCCCCCOCC(=O)N(CCCN(C)C)C(CCCCCCCCC(=O)OC(CCCCCC)CCCCCC)CCCCCCCCC(=O)OC(CCCCCC)CCCCCC [compound 122]
Total flux (fluorescence expression intensity): 3.56E+07
Spleen (fluorescence expression intensity): 3.02E+06
(Spleen/Total Flux) * 100%: 8.48%
Multiple of spleen delivery/total delivery (Spleen/Total Flux) to Compound 118: 7.44

CCCCCCCCOCC(=O)N(CCCN(C)C)C(CCCCCCCCC(=O)OC(CCCCCC)CCCCCC)CCCCCCCCC(=O)OC(CCCCCC)CCCCCC [compound 123]
Total flux (fluorescence expression intensity): 5.95E+07
Spleen (fluorescence expression intensity): 4.02E+06
(Spleen/Total Flux) * 100%: 6.76%
Multiple of spleen delivery/total delivery (Spleen/Total Flux) to Compound 118: 5.93

CCCCCCC(CCCCCC)OC(=O)CCCCCCCCC(CCCCCCCCC(=O)OC(CCCCCC)CCCCCC)N(CCCN(C)C)C(=O)CCOCCCC [compound 124]
Total flux (fluorescence expression intensity): 3.45E+07
Spleen (fluorescence expression intensity): 6.18E+06
(Spleen/Total Flux) * 100%: 17.91%
Multiple of spleen delivery/total delivery (Spleen/Total Flux) to Compound 118: 15.71

CCCCCCC(CCCCCC)OC(=O)CCCCCCCCC(CCCCCCCCC(=O)OC(CCCCCC)CCCCCC)N(CCCN(C)C)C(=O)CCOCCCCC [compound 125]
Total flux (fluorescence expression intensity): 5.40E+07
Spleen (fluorescence expression intensity): 2.72E+06
(Spleen/Total Flux) * 100%: 5.04%
Multiple of spleen delivery/total delivery (Spleen/Total Flux) to Compound 118: 4.42

CCCCCCOCCC(=O)N(CCCN(C)C)C(CCCCCCCCC(=O)OC(CCCCCC)CCCCCC)CCCCCCCCC(=O)OC(CCCCCC)CCCCCC [compound 126]
Total flux (fluorescence expression intensity): 5.39E+07
Spleen (fluorescence expression intensity): 6.87E+06
(Spleen/Total Flux) * 100%: 12.75%
Multiple of spleen delivery/total delivery (Spleen/Total Flux) to Compound 118: 11.18

CCCCCCCOCCC(=O)N(CCCN(C)C)C(CCCCCCCCC(=O)OC(CCCCCC)CCCCCC)CCCCCCCCC(=O)OC(CCCCCC)CCCCCC [compound 127]
Total flux (fluorescence expression intensity): 3.56E+07
Spleen (fluorescence expression intensity): 4.60E+06
(Spleen/Total Flux) * 100%: 12.92%
Multiple of spleen delivery/total delivery (Spleen/Total Flux) to Compound 118: 11.33

CCCCCCCCOCCC(=O)N(CCCN(C)C)C(CCCCCCCCC(=O)OC(CCCCCC)CCCCCC)CCCCCCCCC(=O)OC(CCCCCC)CCCCCC [compound 128]
Total flux (fluorescence expression intensity): 5.62E+07
Spleen (fluorescence expression intensity): 3.01E+06
(Spleen/Total Flux) * 100%: 5.36%
Multiple of spleen delivery/total delivery (Spleen/Total Flux) to Compound 118: 4.70

CCCCCCC(CCCCCC)OC(=O)CCCCCCCCC(CCCCCCCCC(=O)OC(CCCCCC)CCCCCC)N(CCCN(C)C)C(=O)CCCOCCCC [compound 129]
Total flux (fluorescence expression intensity): 3.53E+07
Spleen (fluorescence expression intensity): 1.33E+07
(Spleen/Total Flux) * 100%: 37.68%
Multiple of spleen delivery/total delivery (Spleen/Total Flux) to Compound 118: 33.05
